Each block holds one compound with its values, some of them ahead of it.
Assays:
MultiFate-2.3 cells = assay: Flow cytometry analysis of MultiFate-2.3 state-switching; format: cell-based, Chinese hamster
Source text: FIG. 21A-FIG. 21C depict non-limiting exemplary data related to raw flow cytometry analysis of MultiFate-2.3 state-switching. Each plot represents one of three biological replicates at the indicated time point (cf. FIG. 4B). Initial A-only, B-only and A+B cells (rows) were sorted under the media conditions indicated on the top. Each 2-dimensional flow cytometry plot was divided at mCherry=104 and mCitrine=104 into four quadrants, representing four states. For each plot, the percentage of cells in each of the four states is labeled on the corresponding corner. Timelines above each set of plots represent the time and indicated inducer conditions. Note that since the response elements for 4-OHT or Dox are adjacent to the transcription factor homodimer binding sites (Table 2), the addition of 4-OHT or Dox increases A or B expression up to, but not substantially beyond, the level produced by transcription factor self-activation. […] Additional Dox activation further increased the B expression only by another 1.4 fold (Day 6 versus Day 18).
Finally, it was asked to what extent cells could be deliberately switched from one state to another through transient perturbations. MultiFate-2.3, in which the A and B genes can be independently activated by 4-hydroxy-tamoxifen (4-OHT) and Dox, respectively, was used to address this question. In this cell-line, the response elements for the inducers are adjacent to the homodimer binding sites. Therefore, the addition of inducers increases A or B expression up to, but not substantially beyond, the level produced by self-activation (FIG. 2C and FIG. 21A-FIG. 21C). In the bistable regime, transient induction of either transcription factor switched cells into the corresponding state, where they remained in the absence of further induction (FIG. 8A, FIG. 4B, left, and FIG. 21A). […]
For flow cytometry experiments characterizing state stability (FIG. 3C and FIG. 5B) and state-switching dynamics (FIG. 4A-FIG. 4B), cells from each state were sorted into media containing corresponding inducers. […] The remaining 96% cells were suspended in the flow cytometry buffer and analyzed by flow cytometry. […]
To characterize long-term state stability of MultiFate cells in different media conditions (FIG. 3A-FIG. 5D), 4% of cells were trypsinized and transferred into fresh media with the same condition every three days. The remaining cells were resuspended in flow cytometry buffer and analyzed by a flow cytometer. The resulting two-dimensional (or three-dimensional for MultiFate-3) fluorescence intensity plots were then divided into four quadrants (or eight octants) by an empirical threshold in each of the two (or three) fluorescence channels. […]

[1] = test system: reporter containing 18 bp homodimer binding sites driving the expression of Citrine; assay: Transient co-transfection Citrine reporter assay of ZF transcription factors; format: cell-based, Chinese hamster
Source text: To engineer ZF transcription factors, the ErbB2 ZF DNA-binding domain was fused to a GCN4 homodimerization domain and a VP48 transcriptional activation domain to create the synthetic transcription factor, termed ZF-GCN4-AD (FIG. 2A). A transcription factor (ZF-AD) lacking GCN4 was used as a monomeric control. To assay their transcriptional activity, a reporter was constructed containing 18 bp homodimer binding sites driving the expression of Citrine. Each transcription factor was then co-transfected together with the reporter and an mTagBFP2 co-transfection marker into Chinese hamster ovary K1 (CHO-K1) cells, and analyzed for Citrine expression by flow cytometry 36 hours later (FIG. 2A and FIG. 9A) (See, “Additional Methods” below). […] Arginine-to-alanine mutations were introduced at key positions in the ZF known to weaken DNA binding, which decreased monomeric activity without reducing homodimer activity (FIG. 2A, red square). […]
All tissue culture experiments were performed with Chinese hamster ovary K1 cells (CHO-K1, ATCC). […] Cells were harvested after 36 hours and cell fluorescence was measured by flow cytometry. […] After another 72 hours, cells were harvested and analyzed by flow cytometry. […] The inhibition strength was quantified as the reduction of self-activation cell fractions. […]

[2] = test system: self-activation construct in Tet3G-expressing CHO-K1 cells; assay: ZF transcription factor self-activation assay (normalized mCitrine+ fraction); format: cell-based, Chinese hamster; conditions: 24 hours Dox, then Dox withdrawn; 72 hours in AP1903 and/or TMP
Source text: To validate this capability, a self-activation construct was designed (FIG. 2C), in which a transcription factor with a FKBP dimerization domain is expressed from a promoter containing its own 18 bp homodimer binding sites (Table 2). This construct allowed independent Dox-inducible activation through upstream Tet3G (Takara Bio) binding sites. […] Finally, a destabilized mCitrine was incorporated for dynamic readout of construct expression. This construct was integrated into Tet3G-expressing CHO-K1 cells, generating a stable polyclonal population for further analysis (Table 3) (See, “Additional Methods” below).
For experiments characterizing ZF transcription factor self-activation (FIG. 2C and FIG. 10A), each self-activation construct was stably integrated (Table 2) into polyclonal Tet3G-expressing CHO-K1 cells via PiggyBac (Systems Biosciences) to make a polyclonal cell line (Table 3). […] After another 72 hours, cells were harvested and analyzed by flow cytometry.
Each self-activation construct (Table 2, construct MF63-MF69) was stably integrated into Tet3G-expressing CHO-K1 cells. […] After another 72 hours, cells were harvested and analyzed by flow cytometry. […]

[3] = test system: monoclonal self-activation stable lines (42ZFR2AR39AR67A DNA-binding domain); assay: Inhibition of self-activation by competitive dimerization; format: cell-based, Chinese hamster; conditions: 100 nM AP1903 and 10 μM TMP
Source text: To test this, monoclonal cell lines with the self-activating circuits were selected, and then constructs expressing proteins were stably integrated with a different ZF DNA-binding domain and a matching or mismatching dimerization domain to generate a polyclonal cell population for each perturbation construct (Table 2 and Table 3) (See, “Additional Methods” below). […] Without being bound by any particular theory, this may be through non-specific mechanisms (FIG. 2D and FIG. 10B-FIG. 10C).
All tissue culture experiments were performed with Chinese hamster ovary K1 cells (CHO-K1, ATCC). […] Cells were harvested after 36 hours and cell fluorescence was measured by flow cytometry. […] After another 72 hours, cells were harvested and analyzed by flow cytometry. […] The inhibition strength was quantified as the reduction of self-activation cell fractions.
To determine whether competitive dimerization inhibits self-activation (FIG. 2D and FIG. 10B-FIG. 10C), plasmids (Table 2, construct MF72-MF80) expressing different transcription factor variants and a co-translational mCherry were stably integrated in these two monoclonal lines. After puromycin selection, cells were transferred into media containing 100 nM AP1903+10 μM TMP to permit self-activation, and measured by flow cytometry after another 72 hours. […]

homodimerization domain [4] = target: T1, homodimerization domain (Homo sapiens, UniProt P62942, F37V); assay: Dissociation constant of homodimerization domains (parameter estimate); format: binding; conditions: media containing 100 nM AP1903; reasoned from reporter activation versus GCN4; read-out: apparent dissociation constant Kd of homodimerization
T1 construct: expressed in transfected cells; host or cells: CHO-K1
T1 sequence (P62942 2-108 F37V): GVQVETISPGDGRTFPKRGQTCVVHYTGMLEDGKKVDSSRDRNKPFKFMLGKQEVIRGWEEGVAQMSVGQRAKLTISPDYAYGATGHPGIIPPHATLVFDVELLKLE
Description: Finally, parameters related to protein dimerization were estimated. In some embodiments, the apparent dissociation constant Kd of FKBP homodimerization domain may depend on AP1903 concentrations. […] Based on this observation, it was reasoned that in media containing 100 nM AP1903, the apparent dissociation constant Kd≤10 nM. An estimate of Kd=10 nM=8000 molecules/cell was used in the model. For monomer association rate kon, an intermediate value in the range of diffusion-limited association rates of kon=4×10^5/(M·s)=1.8×10^−3 cell/(protein·hr) was used. These two values together produce a dimer dissociation rate koff=Kd×kon=[…].

homodimerization domain [5] = conditions: cited from earlier work

Compound: 4-hydroxy-tamoxifen [4-OHT]
- additional increase in A expression by inducer compared with self-activation (Day 6 versus Day 18) (MultiFate-2.3 cells; 4-OHT 25 nM): 2.8 fold

- control of ZF transcription factor dimerization/activation by dimerization ligand ([1]; FKBP12F36V (FKBP) homodimerization domain instead of GCN4, BCRZFR39A): dose-dependent control of dimerization
Compound: CC[C@H](C(=O)N1CCCC[C@H]1C(=O)O[C@H](CCc1ccc(OC)c(OC)c1)c1cccc(OCC(=O)NCCNC(=O)COc2cccc([C@@H](CCc3ccc(OC)c(OC)c3)OC(=O)[C@@H]3CCCCN3C(=O)[C@@H](CC)c3cc(OC)c(OC)c(OC)c3)c2)c1)c1cc(OC)c(OC)c(OC)c1 [AP1903]
- self-activation after Dox withdrawal (mCitrine distribution) [2]: bimodal distribution of mCitrine fluorescence

Compound: C[C@H]1c2cccc(O)c2C(=O)C2=C(O)[C@]3(O)C(=O)C(C(N)=O)=C(O)[C@@H](N(C)C)[C@@H]3[C@@H](O)[C@@H]21 [Dox]
- additional increase in B expression by inducer compared with self-activation (Day 6 versus Day 18) (MultiFate-2.3 cells; Dox 500 ng/ml): 1.4 fold

Compound: COc1cc(Cc2cnc(N)nc2N)cc(OC)c1OC [TMP, trimethoprim]
- self-activation after Dox withdrawal (mCitrine distribution) [2]: promoted self-activation in a dose-dependent manner

- inhibition of self-activation ([3]; FKBP-42ZFR2AR39AR67A-VP48-DHFR self-activation cells): can partially inhibit self-activation
- Kd (homodimerization domain [4]): ≤ 0.01 µM
Compound: FKBP: FKBP12F36V homodimerization domain (SEQ ID NO: 5)

- inhibition of self-activation ([3]; 42ZFR2AR39AR67A-GCN4-VP48-DHFR self-activation cells): did not have inhibitory effects
Compound: GCN4: GCN4 homodimerization domain
- Kd (homodimerization domain [5]): 0.01 to 0.02 µM

Compound: NLS-FKBP12F36V-37ZFR2AR11AR39AR67A-VP16-NLS-DHFR [transcription factor B]
- increase in B expression by transcription factor self-activation (Day 18 versus Day 0) (MultiFate-2.3 cells): 48 fold

Compound: NLS-FKBP12F36V-BCRZFR39A-VP16-NLS-DHFR [transcription factor A]
- increase in A expression by transcription factor self-activation (mCherry median Day 18 / Day 0) (MultiFate-2.3 cells; mean of three replicates): 125 fold

- reporter activation by ZF transcription factor ([1]; ErbB2 ZF, VP48 activation domain, wild-type (WT) ZF, flow cytometry 36 hours after transfection): strongly activated the reporter
Compound: ZF-GCN4-AD: ErbB2 ZF DNA-binding domain fused to GCN4 homodimerization domain and VP48 activation domain

Source: patent US20220177911A1, “SYNTHETIC CIRCUIT FOR CELLULAR MULTISTABILITY” (California Institute of Technology, priority 2020, published 2022)
